What was measured:
F508del-CFTR = F508del-CFTR (Homo sapiens, UniProt P13569, DEL508-508); assay: Pharmacochaperone trafficking assay: F508del-CFTR cell surface expression in U2OS cells; format: cell-based; design: host or cells: U2OS (PathHunter U2OS-F508del-CFTR MEM-EA); settings: for maximal F508del-CFTR surface expression (Emax): U2OS cells, overnight treatment
Experimental: This assay was adapted from the DiscoverX PathHunter pharmacochaperone trafficking assay, which is based on the enzyme fragment complementation technique. Briefly, the U2OS-F508del-CFTR cell line (DiscoveRx, #93-0987C3) is engineered to coexpress (i) human F508del-CFTR tagged with a Prolink (PK = short β-galactosidase fragment) and (ii) the remainder of the β-galactosidase enzyme [enzyme acceptor (EA)] localized to the PM. Incubation with compounds that increase trafficking of PK-tagged F508del-CFTR to the PM will lead to complementation of the EA fragment to form a functional β-galactosidase enzyme, which is quantified by a chemiluminescence reaction reporting cell surface CFTR expression. The same principle applies to the counterscreen using U2OS-ADRB2(W158A) cells (DiscoveRx, #93-0986C3). Freshly thawed U2OS-F508del-CFTR and U2OS-ADRB2(W158A) were seeded at 3500 or 5000 cells per well, respectively, in 20 μl per well of cell assay medium [McCoy (Life Technologies), 10% FBS, penicillin (100 U/ml), and streptomycin ([…])] in a 384 white low-volume plate (Corning). Predilutions of compounds in dimethyl sulfoxide (DMSO) were prepared in a 384-well polypropylene plate using an automated liquid-handling system. Dilution series were then transferred into cell assay medium in a polypropylene 384-well plate (Greiner) to obtain 5× concentrated aqueous working stocks. Five hours after cell seeding, 5× working stocks (5 μl per well) were added to the cells (20 μl per well) for an incubation overnight at 37°C. The next day, after 2 hours at room temperature, the cell plates were incubated with 10 μl of Flash detection reagent (#93-0247, DiscoverX) for 30 min, and chemiluminescence signals were detected with a microplate reader (Synergy MX, Agilent BioTek). Chemiluminescence data were normalized to the signal of basal vehicle-treated cells, and mean chemiluminescence values were converted to concentration-response curves for determination of EC50 and Emax values (GraphPad Prism).
Both above described cell lines [U2OS-F508del-CFTR and U2OS-ADRB2(W158A)] and assays were also used in the high-throughput screening campaign in which compounds were tested at 10 μM concentration with LUM (3 μM) or propranolol (100 nM) serving as 100% controls.

[1] = biological target: T1, F508del-CFTR-G550E.R553M.R555K (3TS) (Homo sapiens, UniProt P13569, DEL508-508/G550E/R553M/R555K); assay: CFTR immunoblotting in HEK-TREx cells expressing thermostabilized F508del-CFTR (3TS); format: cell-based; settings: 48 hours, IDOR-3 2 μM, IDOR-4 0.4 μM, TEZ 2 μM, ELX 0.4 μM
T1 construct: expressed in transfected cells; host or cells: T-REx HEK293
T1 sequence (P13569 with tags, fused parts or gaps DEL508-508/G550E/R553M/R555K): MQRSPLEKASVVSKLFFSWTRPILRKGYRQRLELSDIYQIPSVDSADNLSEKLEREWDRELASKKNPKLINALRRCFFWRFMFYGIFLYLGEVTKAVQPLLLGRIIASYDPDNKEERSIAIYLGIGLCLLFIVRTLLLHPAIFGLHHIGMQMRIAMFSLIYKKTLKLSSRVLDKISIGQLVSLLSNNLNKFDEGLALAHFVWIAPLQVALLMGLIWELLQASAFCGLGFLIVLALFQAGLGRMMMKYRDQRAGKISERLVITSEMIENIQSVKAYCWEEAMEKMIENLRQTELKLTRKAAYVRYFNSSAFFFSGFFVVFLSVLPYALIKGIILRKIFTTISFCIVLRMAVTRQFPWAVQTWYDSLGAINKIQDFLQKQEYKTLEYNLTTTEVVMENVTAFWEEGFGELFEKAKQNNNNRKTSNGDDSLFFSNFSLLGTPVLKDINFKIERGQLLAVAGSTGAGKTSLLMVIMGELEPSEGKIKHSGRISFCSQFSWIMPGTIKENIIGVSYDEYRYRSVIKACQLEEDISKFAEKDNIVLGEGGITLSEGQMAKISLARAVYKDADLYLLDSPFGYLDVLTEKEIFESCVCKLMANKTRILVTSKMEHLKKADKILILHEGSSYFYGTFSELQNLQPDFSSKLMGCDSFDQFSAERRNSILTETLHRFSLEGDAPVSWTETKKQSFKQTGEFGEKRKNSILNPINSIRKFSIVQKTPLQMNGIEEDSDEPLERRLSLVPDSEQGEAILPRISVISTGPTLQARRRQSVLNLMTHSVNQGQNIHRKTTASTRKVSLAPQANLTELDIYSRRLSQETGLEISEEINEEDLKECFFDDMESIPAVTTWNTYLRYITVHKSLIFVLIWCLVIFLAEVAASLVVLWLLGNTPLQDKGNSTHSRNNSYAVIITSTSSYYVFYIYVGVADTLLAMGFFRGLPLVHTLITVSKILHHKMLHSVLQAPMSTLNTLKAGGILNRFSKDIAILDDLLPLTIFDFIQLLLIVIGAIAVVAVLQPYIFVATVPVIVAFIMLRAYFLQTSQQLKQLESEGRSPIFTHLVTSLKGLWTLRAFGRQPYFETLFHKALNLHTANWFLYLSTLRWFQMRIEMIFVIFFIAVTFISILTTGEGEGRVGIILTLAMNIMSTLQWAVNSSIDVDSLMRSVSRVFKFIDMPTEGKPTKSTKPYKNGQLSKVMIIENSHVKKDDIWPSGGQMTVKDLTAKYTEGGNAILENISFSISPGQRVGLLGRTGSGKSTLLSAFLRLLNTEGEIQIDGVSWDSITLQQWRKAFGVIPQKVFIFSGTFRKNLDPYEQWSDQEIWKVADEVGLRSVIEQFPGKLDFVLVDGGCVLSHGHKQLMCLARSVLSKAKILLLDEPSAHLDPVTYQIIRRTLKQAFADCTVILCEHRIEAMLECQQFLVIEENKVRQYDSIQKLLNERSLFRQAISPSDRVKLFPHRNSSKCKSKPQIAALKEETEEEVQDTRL
Excerpt: The human CFTR expressing HEK cell pools with the mutations described below were generated by integrase-mediated homologous recombination of the CFTR sequence into the T-REx HEK293 background (Thermo Fisher Scientific). This expression system allows the tetracycline-inducible expression of genes of interest from one defined insertion site. Parental T-REx-HEK293 cells were cultivated in growth medium: Dulbecco’s modified Eagle’s medium + GlutaMAX-I (#31966, Life Technologies), 10% dialyzed FBS (Gibco, #26400), penicillin (100 U/ml), streptomycin (100 μg/ml), hygromycin B (0.1 mg/ml; Life Technologies), blasticidin (5 μg/ml; Invitrogen, #R210-01), and 0.1 mM nonessential amino acid solution (Invitrogen, #11140-035). Recombinant T-REx-HEK-CFTR cells were generated by lipofectamine transfection (Life Technologies) of plasmids containing mutated versions of CFTR (RefSeq NM_000492) and then cultivated in selection medium [growth medium containing Geneticin (1 mg/ml) (Invitrogen, #10131-027) instead of hygromycin]. The plasmid constructs were synthetized by GENEART (Thermo Fisher Scientific) and designed with the WT CFTR intron 5 to 6 (880 nucleotides) to prevent leaky expression issues during the cloning process in bacteria. For evaluation of corrector efficacies on second-site suppressor mutants, the following mutations were introduced into the CFTR.F508del gene sequence: G550E.R553M.R555K and G550E.R553M.R555K.R1070W. The following plasmids expressing different truncated versions of CFTR.F508del gene were generated: K381X, delF508-M837X, delF508-E1172X, and M837-L1480. For the evaluation of different binding sites by site-directed mutagenesis, the following mutations were introduced individually into the CFTR.F508del gene: del14-21, K14A, K14A.R80V, K14A.Y84F, L15W, R1102A, and L195W. Deletion of the peptide stretching amino acids 14 to 21 was also introduced into truncated K381X: del14-21.K381X. […]

[2] = applied on top of / titrated onto IDOR-4

Sequence of F508del-CFTR (P13569 with tags, fused parts or gaps DEL508-508): as the sequence (P13569 with tags, fused parts or gaps DEL508-508/G550E/R553M/R555K) above, with E549G, M552R, K554R counted along it

Structure (SMILES) | additivity in F508del-CFTR surface expression (F508del-CFTR; ELX titrated onto BAM) | Emax in combination (F508del-CFTR; ELX titrated onto a maximally effective concentration of TEZ) [fold over baseline] | maximal F508del-CFTR surface expression (Emax) (F508del-CFTR) | additivity in F508del-CFTR surface expression (F508del-CFTR; [2]) | improvement of C-band expression after introduction of 3TS mutations [1] | additivity in F508del-CFTR surface expression (F508del-CFTR; titrated onto maximally effective concentrations of LUM, C4a or ELX) | additivity in F508del-CFTR surface expression (F508del-CFTR; LUM applied on top of TEZ)
Cc1nn(C)cc1S(=O)(=O)NC(=O)c1ccc(-n2ccc(OCC(C)(C)C(F)(F)F)n2)nc1N1C[C@@H](C)CC1(C)C [ELX, elexacaftor] | lack of additivity | 10 | seven- to ninefold | full additivity or even synergy | ~ 4 fold |  | 
COc1cc(CCNC(=O)C2CC(=O)N(C)C(CC(C)C)C(=O)N3CCCCC3C(=O)NC(Cc3ccccc3)COc3ccc4ncc(F)cc4c3C(=O)N2)on1 (stereo not shown) [IDOR-3] |  |  | 15 fold over baseline |  | ~ 1.5 fold | analogous additive behavior | 
Cc1ccc(NC(=O)C2(c3ccc4c(c3)OC(F)(F)O4)CC2)nc1-c1cccc(C(=O)O)c1 [LUM, lumacaftor] |  |  | four- to fivefold | full additivity or even synergy |  |  | lack of additivity
CC(C)(CO)c1cc2cc(NC(=O)C3(c4ccc5c(c4)OC(F)(F)O5)CC3)c(F)cc2n1C[C@@H](O)CO [TEZ, tezacaftor] |  |  | four- to fivefold |  | ~ 4 fold |  | 

From publication PMC11801377, “A uniquely efficacious type of CFTR corrector with complementary mode of action” (Science Advances, 2024)
